{"source": "patent US10815276B2", "about": "“Cell penetrating peptides and methods of making and using thereof” (Entrada Therapeutics, Inc., priority 2014, dated 2020)", "key": {"Jurkat cells": {"system": "Jurkat cells", "test": "In cellulo fluorimetric caspase assay", "type": "cell-based", "details": "staurosporin-treated cells, 5 μM peptide, 10-h period", "protocol": "100 μL of Jurkat cell suspension (5×10^5 cells/mL) was seeded in 96-well plate one hour prior to the experiment. Ten μL of staurosporine stock solution (10 μM) was added into half of the wells to induce apoptosis, while 10 μL of media was added to the other wells. After 1 h incubation, caspase-3 fluorogenic substrates were added to the cells to a final concentration of 5 μM. The fluorescence of the released coumarin was measured on the Spectramax M5 plate reader with excitation and emission wavelengths at 360 and 440 nm at various times points (0-6 h). The fluorescence unit (FU) increases between induced and uninduced cells were plotted against the time to present caspase-3 activities measured using various fluorogenic substrates in living cell in real-time. Three independent sets of experiments, each performed in triplicate, were conducted.\nJurkat cells were pretreated with the kinase inhibitor staurosporin to induce caspase activities and thus apoptosis (Belmokhtar, C A et al. Biochem. J. 1996, 315, 21). These cells were then incubated with peptides 3-7 and the amount of Amc released was monitored at various time points (0-10 h). […] Peptide 4 produced the fastest fluorescence increase, reaching 459 fluorescence units (FU), followed by peptides 7 and 6. […] This slow rate of AMC release can be attributed to hydrolysis by other intracellular proteases and peptidases. Consistent with this interpretation, pretreatment of Jurkat cells with a pancaspase inhibitor Z-VAD(OMe)-FMK (Slee, E A et al. Biochem J. 1996, 315, 21) followed by incubation with peptide 4 released AMC at a rate that was similar to that of peptide 5 alone. One explanation of the above observations is that both peptides 4 and 5 can enter the cell interior efficiently, but only peptide 4 can be converted into the linear caspase substrate inside the cells."}, "HeLa cells": {"system": "HeLa cells", "test": "FACS uptake of FITC-labeled peptides", "type": "cell-based, human", "details": "5 μM, 2 h"}, "[1]": {"test": "Serum stability test (25% human serum)", "type": "in vitro ADME", "details": "37° C.", "protocol": "The stability tests were carried by modifying a previously reported procedure (Nguyen, L T et al. […] At various time points (0-6 h), 200-μL aliquots were withdrawn and mixed with 50 μl of 15% trichloroacetic acid and incubated at 4° C. overnight. The final mixture was centrifuged at 15,000 rpm for 10 min in a microcentrifuge, and the supernatant was analyzed by reversed-phase HPLC equipped with a C18 column (Waters). The amount of remaining peptide (%) was determined by integrating the area underneath the peptide peak (monitored at 214 nm) and compared with that of the control reaction (no serum)."}, "PTP1B": {"target": "T1, PTP1B (Homo sapiens, UniProt P18031)", "T1 construct": "The gene coding for the catalytic domain of PTP1B (amino acids 1-321) was amplified; made in house; host or cells: prokaryotic vector pET-22b(+)-ybbR", "T1 sequence (P18031 1-321)": "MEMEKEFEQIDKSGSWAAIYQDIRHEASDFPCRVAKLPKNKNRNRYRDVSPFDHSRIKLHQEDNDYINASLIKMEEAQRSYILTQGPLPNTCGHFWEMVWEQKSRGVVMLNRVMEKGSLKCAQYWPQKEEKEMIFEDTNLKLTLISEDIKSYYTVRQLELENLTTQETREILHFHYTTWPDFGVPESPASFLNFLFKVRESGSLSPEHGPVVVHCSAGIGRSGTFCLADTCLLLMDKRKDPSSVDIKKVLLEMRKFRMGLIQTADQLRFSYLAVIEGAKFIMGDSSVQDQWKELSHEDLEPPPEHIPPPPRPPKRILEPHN", "test": "PTP inhibition assay (pNPP)", "type": "biochemical", "details": "pNPP 0-24 mM; read-out: K1 (competitive inhibition constant)", "protocol": "PTP assays were performed in a quartz microcuvette (total volume 150 μL). The reaction mixture contains 100 mM Tris-HCl, pH 7.4, 50 mM NaCl, 2 mM EDTA, 1 mM TCEP, 0-1 μM of PTP inhibitor, and 500 μM para-nitrophenyl phosphate (pNPP). The enzymatic reaction was initiated by the addition of PTP (final concentration 15-75 nM) and monitored continuously at 405 nm on a UV-VIS spectrophotometer. Initial rates were calculated from the reaction progress curves (typically <60 s). The half-maximal inhibition constant (IC50) was defined as the concentration of an inhibitor that reduced the enzyme activity to 50% and was obtained by plotting the rates (V) against the inhibitor concentration [I] and fitting the data against the equation\n[formula] where V0 is the enzymatic reaction rate in the absence of inhibitor. […] The reaction rate (V) was plotted against the pNPP concentration ([S]) and fitted against the equation\n[formula] to obtain the Michaelis constant K. The Ki value was obtained by plotting the K values against the inhibitor concentration [I] and fitted to equation\n[formula] where K0 is the Michaelis constant in the absence of inhibitor ([I]=0)."}, "Pin1 [2]": {"target": "T2, Pin1 (Homo sapiens, UniProt Q13526, S16A/Y23A)", "T2 construct": "The full-length human S16A/Y23A mutant Pin1 was expressed and purified from E. coli; made in house", "T2 sequence (Q13526 whole entry S16A/Y23A, the tested form may be a part)": "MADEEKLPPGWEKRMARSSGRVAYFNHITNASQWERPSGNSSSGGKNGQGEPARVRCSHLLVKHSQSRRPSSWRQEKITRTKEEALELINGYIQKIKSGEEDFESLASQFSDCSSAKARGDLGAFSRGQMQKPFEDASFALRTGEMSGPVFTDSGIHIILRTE", "test": "Fluorescence anisotropy binding to Pin1", "protocol": "The gene coding for the catalytic domain of PTP1B (amino acids 1-321) was amplified by the polymerase chain reaction using PTP1B cDNA as template and oligonucleotides 5′-[…]-3′ and 5′-[…]-3′ as primers. […] Expression and purification of the ybbR-tagged PTP1B were carried out as previously described (Ren, L et al. Biochemistry 2011, 50, 2339-2356). […] The reaction mixture was passed through a G-25 fast-desalting column equilibrated in 30 mM HEPES, pH 7.4, 150 mM NaCl to remove any free dye molecules. The full-length human S16A/Y23A mutant Pin1 was expressed and purified from E. coli as previously described (Liu, T et al. J. Med. Chem. 2010, 53, 2494-2501).\nFA experiments were carried out by incubating 100 nM FITC-labeled peptide with varying concentrations of protein in 20 mM HEPES (pH 7.4), 150 mM NaCl, 2 mM magnesium acetate, and 0.1% bovine serum albumin (BSA) for 2 h at room temperature. The FA values were measured on a Molecular Devices Spectramax M5 plate reader, with excitation and emission wavelengths at 485 and 525 nm, respectively. Equilibrium dissociation constants (KD) were determined by plotting the FA values as a function of protein concentration and fitting the curve to the following equation:\n[formula] where Y is the FA value at a given protein concentration x, L is the peptide concentration, Qb/Qf is the correction factor for fluorophore-protein interaction, Amax is the maximum FA value when all of the peptides are bound to protein, while Amin is the minimum FA value when all of the peptides are free. FA competition assay was performed by incubating 100 nM FITC-labeled Pin1 inhibitor 5 with 1 μM Pin1, followed by the addition of 0-5 μM unlabeled inhibitor. The FA values were measured similarly on a pate reader. IC50 values were obtained by plotting the FA values against the competitor concentration and curve fitting using the four-parameter dose-response inhibition equation (Prism 6, GraphPad)."}, "Pin1 [3]": {"target": "T2, Pin1", "test": "Pin1 binding by FA (FITC-labeled peptides)", "details": "FITC-labeled peptide, FA; read-out: KD"}}, "note": "Starred links: 1 amine or outer side, 2 acyl side, 3 side chain; linkers in the order of their positions; H or OH if unused. Positions of bridges follow the written chain, without caps; N, C: chain ends. Non-standard residues stand in square brackets, D forms with d. Residues, ends and D or L forms follow the SMILES beside them. Trimesoyl = O=C(c1cc(C(=O)[*:2])cc(C(=O)[*:3])c1)[*:1]; Phe(4-F) = N[C@@H](Cc1ccc(F)cc1)C(=O)O; 2Nal = N[C@@H](Cc1ccc2ccccc2c1)C(=O)O; NMeF = CN[C@@H](Cc1ccccc1)C(=O)O; Pip = O=C(O)[C@@H]1CCCCN1; Dap = NC[C@H](N)C(=O)O; Sar = CNCC(=O)O"}
{"compound": "C[C@@H]1NC(=O)[C@H](CCCNC(=N)N)NC(=O)[C@H](Cc2ccc3ccccc3c2)NC(=O)[C@@H]2CCCCN2C(=O)[C@@H]([C@H](C)O)NC(=O)CNC(=O)[C@H](Cc2ccccc2)N(C)C(=O)c2cc3cc(c2)C(=O)NC[C@H](NC(=O)[C@@H](C)NC1=O)C(=O)N[C@@H](Cc1ccccc1)C(=O)N[C@@H](Cc1ccc2ccccc2c1)C(=O)N[C@@H](CCCNC(=N)N)C(=O)N[C@@H](CCCNC(=N)N)C(=O)N[C@@H](CCCNC(=N)N)C(=O)N[C@@H](CCCNC(=N)N)C(=O)N[C@H](C(=O)N[C@@H](CCCCN)C(N)=O)CNC3=O", "note": "[Peptide 5, bicyclo[Tm-(Mpa-Gly-D-Thr-Pip-Nal-Arg-Ala-D-Ala)-Dap-(Phe-Nal-Arg-Arg-Arg-Arg-Dap)]-Lys] ([NMeF]G[dT][Pip][2Nal]RA[dA][Dap]F[2Nal]RRRR[Dap]K-NH2; linker N-9-16 via Trimesoyl; C-terminus assumed)", "values": [{"measurement": "Fluorescence increase (released Amc)", "setting": "Jurkat cells", "value": 99, "unit": "FU"}]}
{"compound": "fluorescein isothiocyanate [FITC, reference compound]", "values": [{"measurement": "Mean fluorescence intensity (MFI), total intracellular FITC fluorescence", "setting": "HeLa cells", "value": "1200 arbitrary units (AU)"}]}
{"compound": "C[C@@H]1NC(=O)[C@H](CCCNC(=N)N)NC(=O)[C@H](Cc2ccc3ccccc3c2)NC(=O)[C@@H]2CCCCN2C(=O)[C@@H]([C@H](C)O)NC(=O)[C@H](Cc2ccc(F)cc2)NC(=O)[C@@H](Cc2ccccc2)NC(=O)c2cc3cc(c2)C(=O)NC[C@H](NC(=O)[C@@H](C)NC1=O)C(=O)N[C@@H](Cc1ccccc1)C(=O)N[C@@H](Cc1ccc2ccccc2c1)C(=O)N[C@@H](CCCNC(=N)N)C(=O)N[C@@H](CCCNC(=N)N)C(=O)N[C@@H](CCCNC(=N)N)C(=O)N[C@@H](CCCNC(=N)N)C(=O)N[C@H](C(=O)N[C@@H](CCCCN)C(N)=O)CNC3=O", "note": "[Peptide 4, bicyclo[Tm-(D-Phe-Fpa-D-Thr-Pip-Nal-Arg-Ala-D-Ala)-Dap-(Phe-Nal-Arg-Arg-Arg-Arg-Dap)]-Lys] ([dF][Phe(4-F)][dT][Pip][2Nal]RA[dA][Dap]F[2Nal]RRRR[Dap]K-NH2; linker N-9-16 via Trimesoyl; C-terminus assumed)", "values": [{"measurement": "Fluorescence increase (released Amc)", "setting": "Jurkat cells", "value": 459, "unit": "FU"}]}
{"compound": "N=C(N)NCCC[C@H](NC(=O)[C@H](CCCNC(=N)N)NC(=O)[C@H](CCCNC(=N)N)NC(=O)[C@H](CCC(N)=O)NC(=O)[C@H](CCCNC(=N)N)NC(=O)[C@H](CCCNC(=N)N)NC(=O)[C@H](CCCCN)NC(=O)[C@H](CCCCN)NC(=O)[C@H](CCCNC(=N)N)NC(=O)CNC(=O)[C@@H](N)Cc1ccc(O)cc1)C(N)=O", "note": "[Tat]", "values": [{"measurement": "half-life", "setting": "[1]", "value": "~30", "unit": "min"}]}
{"compound": "C[C@@H]1NC(=O)[C@H](CCCNC(=N)N)NC(=O)[C@H](Cc2ccc3ccccc3c2)NC(=O)[C@@H]2CCCCN2C(=O)[C@@H]([C@H](C)O)NC(=O)CN(C)C(=O)[C@@H](C)NC(=O)c2cc3cc(c2)C(=O)NC[C@H](NC(=O)[C@@H](C)NC1=O)C(=O)N[C@@H](Cc1ccccc1)C(=O)N[C@@H](Cc1ccc2ccccc2c1)C(=O)N[C@@H](CCCNC(=N)N)C(=O)N[C@@H](CCCNC(=N)N)C(=O)N[C@@H](CCCNC(=N)N)C(=O)N[C@@H](CCCNC(=N)N)C(=O)N[C@H](C(=O)N[C@@H](CCCCN)C(N)=O)CNC3=O", "note": "[Peptide 2, bicyclo[Tm-(D-Ala-Sar-D-Thr-Pip-Nal-Arg-Ala-D-Ala)-Dap-(Phe-Nal-Arg-Arg-Arg-Arg-Dap)]-Lys] ([dA][Sar][dT][Pip][2Nal]RA[dA][Dap]F[2Nal]RRRR[Dap]K-NH2; linker N-9-16 via Trimesoyl)", "values": [{"measurement": "Ki", "setting": "PTP1B", "value": 54, "unit": "nM"}, {"measurement": "Reduction of potency vs inhibitor 7", "setting": "Pin1 [2]", "value": "~10", "unit": "fold"}, {"measurement": "Kd", "setting": "Pin1 [3]", "value": 620, "unit": "nM"}]}
{"compound": "C[C@@H]1NC(=O)[C@H](CCCNC(=N)N)NC(=O)[C@H](Cc2ccc3ccccc3c2)NC(=O)[C@@H]2CCCCN2C(=O)[C@@H](CC(=O)O)NC(=O)CN(C)C(=O)[C@@H]2CCCN2C(=O)c2cc3cc(c2)C(=O)NC[C@H](NC(=O)[C@@H](C)NC1=O)C(=O)N[C@@H](Cc1ccccc1)C(=O)N[C@@H](Cc1ccc2ccccc2c1)C(=O)N[C@@H](CCCNC(=N)N)C(=O)N[C@@H](CCCNC(=N)N)C(=O)N[C@@H](CCCNC(=N)N)C(=O)N[C@@H](CCCNC(=N)N)C(=O)N[C@H](C(=O)N[C@@H](CCCCN)C(N)=O)CNC3=O", "note": "[Peptide 3, bicyclo[Tm-(Pro-Sar-D-Asp-Pip-Nal-Arg-Ala-D-Ala)-Dap-(Phe-Nal-Arg-Arg-Arg-Arg-Dap)]-Lys] (P[Sar][dD][Pip][2Nal]RA[dA][Dap]F[2Nal]RRRR[Dap]K-NH2; linker N-9-16 via Trimesoyl)", "values": [{"measurement": "Fluorescence increase (released Amc)", "setting": "Jurkat cells", "value": "little fluorescence increase"}]}
{"compound": "N=C(N)NCCC[C@H](NC(=O)[C@H](CCCNC(=N)N)NC(=O)[C@H](CCCNC(=N)N)NC(=O)[C@H](CCCNC(=N)N)NC(=O)[C@H](CCCNC(=N)N)NC(=O)[C@H](CCCNC(=N)N)NC(=O)[C@H](CCCNC(=N)N)NC(=O)[C@H](CCCNC(=N)N)NC(=O)[C@@H](N)CCCNC(=N)N)C(N)=O", "note": "[Peptide R9]", "values": [{"measurement": "half-life at 50 μM", "setting": "[1]", "value": "~30", "unit": "min"}]}
